Measured values: patent US20100317528A1, “HERBICIDE CONTAINING BENZOYLPYRAZOLE COMPOUND” (ISHIHARA SANGYO KAISHA, LTD., priority 2006, published 2010)

Legend:
Format in all cases: in vivo
[1] = tested on: barnyardgrass (Echinochloa crus-galli L.); assay: Test Example 1: foliar treatment, upland pot test, barnyardgrass
Source text: (§1) Upland field soil was put into a 1/170,000 hectare pot, and seeds of various plants were sown. When the respective plants reached predetermined leaf stage ((1) barnyardgrass (Echinochloa crus-galli L.): 1.0 to 3.0 leaf stage, (2) crabgrass (Digitaria sanguinalis L.): 1.0 to 3.0 leaf stage, (3) green foxtail (Setaria viridis L.): 1.0 to 3.0 leaf stage, (4) redroot pigweed (Amaranthus retroflexus L.): cotyledon stage to 2.0 leaf stage, (5) prickly sida (Sida spinosa L.): cotyledon stage to 1.0 leaf stage, (6) velvetleaf (Abutilon theophrasti MEDIC.): 0.1 to 1.5 leaf stage, (7) rice (Oryza sativa L.): 1.0 to 3.0 leaf stage, (8) wheat (Triticum spp.): 1.7 to 3.4 leaf stage, (9) corn (Zea mays L.): 2.0 to 3.5 leaf stage, (10) soybean (Glycine max Merr.): primary leaf stage to 0.4 leaf stage), wettable powders or emulsifiable concentrates of the compounds of the above formula (I) prepared in accordance with a conventional preparation method, were weighed so that the active ingredients became the prescribed amounts, and diluted with water in an amount corresponding to 500 liter per 1 hectare (containing 0.1 vol % of “KUSARINOH”, manufactured by NIHON NOHYAKU CO., LTD. as an agricultural spreader). The spray solutions thus prepared were applied for foliar treatment by a small sprayer.
(§2) On the 17th to 25th day after application, the state of growth of the respective plants was visually observed, and the herbicidal effect was evaluated by a growth inhibition rate (%) of 0 (equivalent to the non-treated area) to 100% (complete kill).

[2] = tested on: crabgrass (Digitaria sanguinalis L.); assay: Test Example 1: foliar treatment, upland pot test, crabgrass
Source text: as §1, §2

[3] = tested on: green foxtail (Setaria viridis L.); assay: Test Example 1: foliar treatment, upland pot test, green foxtail
Source text: as §1, §2

[4] = tested on: redroot pigweed (Amaranthus retroflexus L.); assay: Test Example 1: foliar treatment, upland pot test, redroot pigweed; details: for Growth inhibition rate (%) Redroot pigweed: 31 g/ha active ingredient, observed 17th to 25th day after application
Source text: as §1, §2

[5] = tested on: prickly sida (Sida spinosa L.); assay: Test Example 1: foliar treatment, upland pot test, prickly sida; details: for Growth inhibition rate (%) Prickly sida: 31 g/ha active ingredient, observed 17th to 25th day after application
Source text: as §1, §2

[6] = tested on: velvetleaf (Abutilon theophrasti MEDIC.); assay: Test Example 1: foliar treatment, upland pot test, velvetleaf
Source text: as §1, §2

rice (Oryza sativa L.) [7] = assay: Test Example 1: foliar treatment, upland pot test, rice
Source text: as §1, §2

corn (Zea mays L.) [8] = assay: Test Example 1: foliar treatment, upland pot test, corn
Source text: as §1, §2

[9] = tested on: soybean (Glycine max Merr.); assay: Test Example 1: foliar treatment, upland pot test, soybean
Source text: as §1, §2

[10] = tested on: barnyardgrass (Echinochloa crus-galli L.); assay: Test Example 2: soil application on the day after sowing, barnyardgrass; details: 250 g/ha active ingredient, observed 19th to 28th day after application
Source text: (§3) Upland field soil was put into a 1/170,000 hectare pot, and seeds of various plants barnyardgrass (Echinochloa crus-galli L.), crabgrass (Digitaria sanquinalis L.), green foxtail (Setaria viridis L.), redroot pigweed (Amaranthus retroflexus L.), prickly sida (Sida spinosa L.), velvetleaf (Abutilon theophrasti MEDIC.), rice (Oryza sativa L.), wheat (Triticum spp.), corn (Zea mays L.) and soybean (Glycine max Merr.)) were sown. On the day after sowing, wettable powders or emulsifiable concentrates of the compounds of the above formula (I) prepared in accordance with a conventional preparation method, were weighed so that the active ingredients became the prescribed amounts, and diluted with water in an amount corresponding to 500 liter per 1 hectare, followed by soil application with a small sprayer.
(§4) On the 19th to 28th day after the application, the state of growth of the respective plants was visually observed, and the herbicidal effect was evaluated by a growth inhibition rate (%) of from 0 (equivalent to the non-treated area) to 100% (complete kill).

[11] = tested on: crabgrass (Digitaria sanquinalis L.); assay: Test Example 2: soil application on the day after sowing, crabgrass; details: 250 g/ha active ingredient, observed 19th to 28th day after application
Source text: as §3, §4

[12] = tested on: green foxtail (Setaria viridis L.); assay: Test Example 2: soil application on the day after sowing, green foxtail; details: 250 g/ha active ingredient, observed 19th to 28th day after application
Source text: as §3, §4

[13] = tested on: redroot pigweed (Amaranthus retroflexus L.); assay: Test Example 2: soil application on the day after sowing, redroot pigweed; details: 250 g/ha active ingredient, observed 19th to 28th day after application
Source text: as §3, §4

[14] = tested on: prickly sida (Sida spinosa L.); assay: Test Example 2: soil application on the day after sowing, prickly sida; details: 250 g/ha active ingredient, observed 19th to 28th day after application
Source text: as §3, §4

[15] = tested on: velvetleaf (Abutilon theophrasti MEDIC.); assay: Test Example 2: soil application on the day after sowing, velvetleaf; details: 250 g/ha active ingredient, observed 19th to 28th day after application
Source text: as §3, §4

rice (Oryza sativa L.) [16] = assay: Test Example 2: soil application on the day after sowing, rice; details: 250 g/ha active ingredient, observed 19th to 28th day after application
Source text: as §3, §4

corn (Zea mays L.) [17] = assay: Test Example 2: soil application on the day after sowing, corn; details: 250 g/ha active ingredient, observed 19th to 28th day after application
Source text: as §3, §4

[18] = tested on: soybean (Glycine max Merr.); assay: Test Example 2: soil application on the day after sowing, soybean; details: 250 g/ha active ingredient, observed 19th to 28th day after application
Source text: as §3, §4

wheat (Triticum spp.) = assay: Test Example 1: foliar treatment, upland pot test, wheat
Source text: as §1, §2

[19] = 31 g/ha active ingredient, observed 17th to 25th day after application

Compound | Growth inhibition rate (%) Barnyardgrass [1, 19] [%] | Growth inhibition rate (%) Crabgrass [2, 19] [%] | Growth inhibition rate (%) Green foxtail [3, 19] [%] | Growth inhibition rate (%) Redroot pigweed [4] [%] | Growth inhibition rate (%) Prickly sida [5] [%] | Growth inhibition rate (%) Velvetleaf [6, 19] [%] | Growth inhibition rate (%) Rice (rice (Oryza sativa L.) [7]; [19]) [%] | Growth inhibition rate (%) Corn (corn (Zea mays L.) [8]; [19]) [%] | Growth inhibition rate (%) Soybean [9, 19] [%] | Growth inhibition rate (%) Barnyardgrass [10] [%] | Growth inhibition rate (%) Crabgrass [11] [%] | Growth inhibition rate (%) Green foxtail [12] [%] | Growth inhibition rate (%) Redroot pigweed [13] [%] | Growth inhibition rate (%) Prickly sida [14] [%] | Growth inhibition rate (%) Velvetleaf [15] [%] | Growth inhibition rate (%) Rice (rice (Oryza sativa L.) [16]) [%] | Growth inhibition rate (%) Corn (corn (Zea mays L.) [17]) [%] | Growth inhibition rate (%) Soybean [18] [%] | also measured
Cc1c(C(=O)c2cnn(C)c2O)ccc(S(C)(=O)=O)c1COCC(F)(F)F [compound 160] | 90 | 100 | 75 | 98 | 60 | 100 | 50 | 0 | 98 | 100 | 100 | 100 | 100 | 95 | 100 | 100 | 0 | 50 | 
Cc1c(C(=O)c2cnn(C)c2O)ccc(S(C)(=O)=O)c1COC(C)C [compound 257] | 100 | 90 | 98 | 85 | 75 | 98 | 90 | 0 | 70 | 90 | 100 | 60 | 98 | 70 | 80 | 90 | 0 | 0 | 
Cc1c(C(=O)c2cnn(C)c2O)ccc(S(C)(=O)=O)c1CC1OCCO1 [compound 256] |  |  |  |  |  |  |  |  |  |  |  |  |  |  |  |  |  |  | inhibition at 31 g/ha ([1]; Echinochloa crus-galli, 31 g/ha active ingredient, observed 17th to 25th day after application, read-out: Growth inhibition rate (%) Barnyardgrass): 100%; inhibition at 31 g/ha ([2]; Digitaria sanguinalis, 31 g/ha active ingredient, observed 17th to 25th day after application, read-out: Growth inhibition rate (%) Crabgrass): 90%; inhibition at 31 g/ha ([3]; Setaria viridis, 31 g/ha active ingredient, observed 17th to 25th day after application, read-out: Growth inhibition rate (%) Green foxtail): 70%; inhibition at 31 g/ha ([6]; Abutilon theophrasti, 31 g/ha active ingredient, observed 17th to 25th day after application, read-out: Growth inhibition rate (%) Velvetleaf): 100%; inhibition at 31 g/ha (rice (Oryza sativa L.) [7]; Oryza sativa, 31 g/ha active ingredient, observed 17th to 25th day after application, read-out: Growth inhibition rate (%) Rice): 60%; inhibition at 31 g/ha (corn (Zea mays L.) [8]; Zea mays, 31 g/ha active ingredient, observed 17th to 25th day after application, read-out: Growth inhibition rate (%) Corn): 0%; inhibition at 31 g/ha ([9]; Glycine max, 31 g/ha active ingredient, observed 17th to 25th day after application, read-out: Growth inhibition rate (%) Soybean): 80%; inhibition at 250 g/ha ([10]; Echinochloa crus-galli, read-out: Growth inhibition rate (%) Barnyardgrass): 100%; inhibition at 250 g/ha ([11]; Digitaria, read-out: Growth inhibition rate (%) Crabgrass): 100%; inhibition at 250 g/ha ([12]; Setaria viridis, read-out: Growth inhibition rate (%) Green foxtail): 95%; inhibition at 250 g/ha ([14]; Sida spinosa, read-out: Growth inhibition rate (%) Prickly sida): 60%; inhibition at 250 g/ha ([15]; Abutilon theophrasti, read-out: Growth inhibition rate (%) Velvetleaf): 80%; inhibition at 250 g/ha (rice (Oryza sativa L.) [16]; Oryza sativa, read-out: Growth inhibition rate (%) Rice): 80%; inhibition at 250 g/ha (corn (Zea mays L.) [17]; Zea mays, read-out: Growth inhibition rate (%) Corn): 0%
COC(C)COc1c(S(C)(=O)=O)ccc(C(=O)c2cnn(C)c2O)c1C (stereo not shown) [compound 227] | 95 | 60 | 98 | 100 | 90 | 100 | 80 | 0 | 100 | 100 | 100 | 100 | 100 | 98 | 100 | 100 | 0 | 10 | 
COCC(C)Oc1c(S(C)(=O)=O)ccc(C(=O)c2cnn(C)c2O)c1C (stereo not shown) [compound 254] | 40 | 50 | 50 | 95 | 40 | 80 | 40 | 0 | 80 | 100 | 98 | 10 | 100 | 60 | 50 | 75 | 0 | 0 | Growth inhibition rate (%) Wheat (wheat (Triticum spp.); [19]): 0%
CCn1ncc(C(=O)c2ccc(S(C)(=O)=O)c(OCC3OCCO3)c2Cl)c1O [compound 250] |  |  |  |  |  |  |  |  |  |  |  |  |  |  |  |  |  |  | inhibition at 63 g/ha ([1]; Echinochloa crus-galli, 63 g/ha active ingredient, observed 21st day after application, read-out: Growth inhibition rate (%) Barnyardgrass): 100%; inhibition at 63 g/ha ([2]; Digitaria sanguinalis, 63 g/ha active ingredient, observed 21st day after application, read-out: Growth inhibition rate (%) Crabgrass): 98%; inhibition at 63 g/ha ([3]; Setaria viridis, 63 g/ha active ingredient, observed 21st day after application, read-out: Growth inhibition rate (%) Green foxtail): 80%; inhibition at 63 g/ha ([4]; Amaranthus retroflexus, 63 g/ha active ingredient, observed 21st day after application, read-out: Growth inhibition rate (%) Redroot pigweed): 100%; inhibition at 63 g/ha ([5]; Sida spinosa, 63 g/ha active ingredient, observed 21st day after application, read-out: Growth inhibition rate (%) Prickly sida): 60%; inhibition at 63 g/ha ([6]; Abutilon theophrasti, 63 g/ha active ingredient, observed 21st day after application, read-out: Growth inhibition rate (%) Velvetleaf): 95%; inhibition at 63 g/ha (rice (Oryza sativa L.) [7]; Oryza sativa, 63 g/ha active ingredient, observed 21st day after application, read-out: Growth inhibition rate (%) Rice): 0%; inhibition at 63 g/ha (wheat (Triticum spp.); Triticum, 63 g/ha active ingredient, observed 21st day after application, read-out: Growth inhibition rate (%) Wheat): 0%; inhibition at 63 g/ha (corn (Zea mays L.) [8]; Zea mays, 63 g/ha active ingredient, observed 21st day after application, read-out: Growth inhibition rate (%) Corn): 10%; inhibition at 63 g/ha ([9]; Glycine max, 63 g/ha active ingredient, observed 21st day after application, read-out: Growth inhibition rate (%) Soybean): 90%
